# “And” between values parts separate entries of the source, which are not always exact repeats. Equal values may be shown once.
# Test system: panel of six GA-specific long-term human T-cell lines (222-2D8, 222-2F12, 165-F3C, 165-F6C, 205-1C4, 205-1F4)
# Assay: GA-specific human T-cell line panel assay (ATP proliferation): GA test lots and altered GA lots compared with Copaxone
# Format: cell-based
# Details: for ATP Proliferation Assay, Mean / Proliferation (ATP assay), Mean: 4 days
# Method: Proliferation assays, using the panel of six GA-specific long-term human T-cell lines listed in Table 78, were carried out to compare […] GA test lots, GMA/009/14 (GA Lot 009), GMA/010/14 (GA Lot 010), GMA/011/14 (GA Lot 011), GMA/012/14 (GA Lot 012), GMA/013/14 (GA Lot 013), GMA/014/14 (GA Lot 014), GA Lot 016, GMA/017/14 (GA Lot 017), GMA/018/14 (GA Lot 018), and GMA/070/14 (GA Lot 070), manufactured using standard methods, to a Copaxone reference lot.
# Each T-cell line was restimulated using methods described above, using five concentrations of the reference antigen (0.5, 1, 2, 2.5, and 5 μg/ml Copaxone), the same five concentrations of test antigen (the nine GA test lots), and a no antigen control, in the presence of 5×10^4 mitomycin-treated autologous B-LCL. Proliferation was measured by ATP assay after 4 days of incubation with antigen, using methods described previously.
# The percentages in the last column of each table were calculated as follows: Proliferation response to test antigen minus proliferation response to control (no antigen)÷proliferation response to reference antigen minus proliferation response to control (no antigen)
# The panel of six GA-specific human T-cell lines listed in Table 78 above was used to test the immunological identity of altered GA lots to Copaxone.
# Proliferation assays using the panel of six GA-specific T-cell lines (Table 77) were carried out, to compare negative GA lots 051F, 054F, 055F, 057F, 058F, 059F, and 060F (test lots), to Copaxone (reference lot). Each cell line was restimulated using 5 concentrations of reference antigen (Copaxone) and test antigen (the negative GA lots), including a no antigen control (in the presence of 5×10^4 mitomycin-treated autologous B-LCL). Proliferation was measured by ATP assay after 4 days of incubation with antigen, using methods described previously.
# The percentages in the last column of each table were calculated as follows: Proliferation response to test antigen minus proliferation response to control (no antigen)÷proliferation response to reference antigen minus proliferation response to control (no antigen).
substance,measurement,setting,value
glatiramer acetate [COP],"ATP Proliferation Assay, Mean","T-cell line 165-F3C, 0.5 μg/mL","4,783"
same,"ATP Proliferation Assay, Mean","T-cell line 165-F3C, 1 μg/mL","22,290"
same,"ATP Proliferation Assay, Mean","T-cell line 165-F3C, 2 μg/mL","53,771"
same,"ATP Proliferation Assay, Mean","T-cell line 165-F3C, 2.5 μg/mL","54,539"
same,"ATP Proliferation Assay, Mean","T-cell line 165-F3C, 5 μg/mL","58,110"
same,"ATP Proliferation Assay, Mean","T-cell line 165-F6C, 0.5 μg/mL","3,328"
same,"ATP Proliferation Assay, Mean","T-cell line 165-F6C, 1 μg/mL","4,620"
same,"ATP Proliferation Assay, Mean","T-cell line 165-F6C, 2 μg/mL","13,255"
same,"ATP Proliferation Assay, Mean","T-cell line 165-F6C, 2.5 μg/mL","18,726"
same,"Mean, ATP proliferation assay","T-cell line 165-F6C, 5 μg/mL","34,012 and 34,995 and 56,466 and 56,465 and 42,493 and 41,233 and 36,303"
same,"ATP Proliferation Assay, Mean","T-cell line 165-F6C, 5 μg/mL","38,653"
same,"ATP Proliferation Assay, Mean","T-cell line 205-1C4, 0.5 μg/mL",932
same,"ATP Proliferation Assay, Mean","T-cell line 205-1C4, 1 μg/mL","2,481"
same,"ATP Proliferation Assay, Mean","T-cell line 205-1C4, 2 μg/mL","9,432"
same,"ATP Proliferation Assay, Mean","T-cell line 205-1C4, 2.5 μg/mL","13,744"
same,"ATP Proliferation Assay, Mean","T-cell line 205-1C4, 5 μg/mL","45,451"
same,"ATP Proliferation Assay, Mean","T-cell line 205-1F4, 0.5 μg/mL",548
same,"ATP Proliferation Assay, Mean","T-cell line 205-1F4, 1 μg/mL","1,906"
same,"ATP Proliferation Assay, Mean","T-cell line 205-1F4, 2 μg/mL","9,959"
same,"ATP Proliferation Assay, Mean","T-cell line 205-1F4, 2.5 μg/mL","13,589"
same,"ATP Proliferation Assay, Mean","T-cell line 205-1F4, 5 μg/mL","18,491"
same,"ATP Proliferation Assay, Mean","T-cell line 222-2D8, 0.5 μg/mL","5,873"
same,"ATP Proliferation Assay, Mean","T-cell line 222-2D8, 1 μg/mL","14,017"
same,"ATP Proliferation Assay, Mean","T-cell line 222-2D8, 2 μg/mL","90,328"
same,"ATP Proliferation Assay, Mean","T-cell line 222-2D8, 2.5 μg/mL","129,878"
same,"ATP Proliferation Assay, Mean","T-cell line 222-2D8, 5 μg/mL","171,116"
same,"ATP Proliferation Assay, Mean","T-cell line 222-2F12, 0.5 μg/mL","10,879"
same,"ATP Proliferation Assay, Mean","T-cell line 222-2F12, 1 μg/mL","27,042"
same,"ATP Proliferation Assay, Mean","T-cell line 222-2F12, 2 μg/mL","105,024"
same,"ATP Proliferation Assay, Mean","T-cell line 222-2F12, 2.5 μg/mL","115,241"
same,"ATP Proliferation Assay, Mean","T-cell line 222-2F12, 5 μg/mL","129,291"
same,"Proliferation (ATP assay), Mean","Table 95, T-cell line 165-F3C, GA conc. 0.5 μg/mL","3,154"
same,"Proliferation (ATP assay), Mean","Table 95, T-cell line 165-F3C, GA conc. 1 μg/mL","9,050"
same,"Proliferation (ATP assay), Mean","Table 95, T-cell line 165-F3C, GA conc. 2 μg/mL","27,693"
same,"Proliferation (ATP assay), Mean","Table 95, T-cell line 165-F3C, GA conc. 2.5 μg/mL","28,018"
same,"Proliferation (ATP assay), Mean","Table 95, T-cell line 165-F3C, GA conc. 5 μg/mL","32,151"
same,"Proliferation (ATP assay), Mean","Table 95, T-cell line 165-F6C, GA conc. 0.5 μg/mL",863
same,"Proliferation (ATP assay), Mean","Table 95, T-cell line 165-F6C, GA conc. 1 μg/mL","1,838"
same,"Proliferation (ATP assay), Mean","Table 95, T-cell line 165-F6C, GA conc. 2 μg/mL","8,163"
same,"Proliferation (ATP assay), Mean","Table 95, T-cell line 165-F6C, GA conc. 2.5 μg/mL","11,665"
same,"Proliferation (ATP assay), Mean","Table 95, T-cell line 165-F6C, GA conc. 5 μg/mL","30,422"
same,"Proliferation (ATP assay), Mean","Table 95, T-cell line 205-1C4, GA conc. 0.5 μg/mL","13,267"
same,"Proliferation (ATP assay), Mean","Table 95, T-cell line 205-1C4, GA conc. 1 μg/mL","26,848"
same,"Proliferation (ATP assay), Mean","Table 95, T-cell line 205-1C4, GA conc. 2 μg/mL","142,528"
same,"Proliferation (ATP assay), Mean","Table 95, T-cell line 205-1C4, GA conc. 2.5 μg/mL","159,785"
same,"Proliferation (ATP assay), Mean","Table 95, T-cell line 205-1C4, GA conc. 5 μg/mL","171,452"
same,"Proliferation (ATP assay), Mean","Table 95, T-cell line 205-1F4, GA conc. 0.5 μg/mL","6,984"
same,"Proliferation (ATP assay), Mean","Table 95, T-cell line 205-1F4, GA conc. 1 μg/mL","15,174"
same,"Proliferation (ATP assay), Mean","Table 95, T-cell line 205-1F4, GA conc. 2 μg/mL","46,598"
same,"Proliferation (ATP assay), Mean","Table 95, T-cell line 205-1F4, GA conc. 2.5 μg/mL","51,372"
same,"Proliferation (ATP assay), Mean","Table 95, T-cell line 205-1F4, GA conc. 5 μg/mL","61,252"
same,"Proliferation (ATP assay), Mean","Table 95, T-cell line 222-2D8, GA conc. 0.5 μg/mL","13,958"
same,"Proliferation (ATP assay), Mean","Table 95, T-cell line 222-2D8, GA conc. 1 μg/mL","87,807"
same,"Proliferation (ATP assay), Mean","Table 95, T-cell line 222-2D8, GA conc. 2 μg/mL","142,231"
same,"Proliferation (ATP assay), Mean","Table 95, T-cell line 222-2D8, GA conc. 2.5 μg/mL","140,804"
same,"Proliferation (ATP assay), Mean","Table 95, T-cell line 222-2D8, GA conc. 5 μg/mL","147,182"
same,"Proliferation (ATP assay), Mean","Table 95, T-cell line 222-2F12, GA conc. 0.5 μg/mL","3,580"
same,"Proliferation (ATP assay), Mean","Table 95, T-cell line 222-2F12, GA conc. 1 μg/mL","42,304"
same,"Proliferation (ATP assay), Mean","Table 95, T-cell line 222-2F12, GA conc. 2 μg/mL","108,046"
same,"Proliferation (ATP assay), Mean","Table 95, T-cell line 222-2F12, GA conc. 2.5 μg/mL","115,182"
same,"Proliferation (ATP assay), Mean","Table 95, T-cell line 222-2F12, GA conc. 5 μg/mL","123,169"
same,"Proliferation (ATP assay), Mean","Table 96, T-cell line 165-F3C, GA conc. 0.5 μg/mL","2,577"
same,"Proliferation (ATP assay), Mean","Table 96, T-cell line 165-F3C, GA conc. 1 μg/mL","5,743"
same,"Proliferation (ATP assay), Mean","Table 96, T-cell line 165-F3C, GA conc. 2 μg/mL","16,415"
same,"Proliferation (ATP assay), Mean","Table 96, T-cell line 165-F3C, GA conc. 2.5 μg/mL","20,446"
same,"Proliferation (ATP assay), Mean","Table 96, T-cell line 165-F3C, GA conc. 5 μg/mL","32,600"
same,"Proliferation (ATP assay), Mean","Table 96, T-cell line 165-F6C, GA conc. 0.5 μg/mL","2,228"
same,"Proliferation (ATP assay), Mean","Table 96, T-cell line 165-F6C, GA conc. 1 μg/mL","4,270"
same,"Proliferation (ATP assay), Mean","Table 96, T-cell line 165-F6C, GA conc. 2 μg/mL","15,430"
same,"Proliferation (ATP assay), Mean","Table 96, T-cell line 165-F6C, GA conc. 2.5 μg/mL","28,942"
same,"Proliferation (ATP assay), Mean","Table 96, T-cell line 165-F6C, GA conc. 5 μg/mL","45,836"
same,"Proliferation (ATP assay), Mean","Table 96, T-cell line 205-1C4, GA conc. 0.5 μg/mL","11,790"
same,"Proliferation (ATP assay), Mean","Table 96, T-cell line 205-1C4, GA conc. 1 μg/mL","26,004"
same,"Proliferation (ATP assay), Mean","Table 96, T-cell line 205-1C4, GA conc. 2 μg/mL","102,672"
same,"Proliferation (ATP assay), Mean","Table 96, T-cell line 205-1C4, GA conc. 2.5 μg/mL","124,300"
same,"Proliferation (ATP assay), Mean","Table 96, T-cell line 205-1C4, GA conc. 5 μg/mL","129,908"
same,"Proliferation (ATP assay), Mean","Table 96, T-cell line 205-1F4, GA conc. 0.5 μg/mL","8,158"
same,"Proliferation (ATP assay), Mean","Table 96, T-cell line 205-1F4, GA conc. 1 μg/mL","17,491"
same,"Proliferation (ATP assay), Mean","Table 96, T-cell line 205-1F4, GA conc. 2 μg/mL","51,613"
same,"Proliferation (ATP assay), Mean","Table 96, T-cell line 205-1F4, GA conc. 2.5 μg/mL","60,244"
same,"Proliferation (ATP assay), Mean","Table 96, T-cell line 205-1F4, GA conc. 5 μg/mL","54,345"
same,"Proliferation (ATP assay), Mean","Table 96, T-cell line 222-2D8, GA conc. 0.5 μg/mL","2,785"
same,"Proliferation (ATP assay), Mean","Table 96, T-cell line 222-2D8, GA conc. 1 μg/mL","28,970"
same,"Proliferation (ATP assay), Mean","Table 96, T-cell line 222-2D8, GA conc. 2 μg/mL","76,089"
same,"Proliferation (ATP assay), Mean","Table 96, T-cell line 222-2D8, GA conc. 2.5 μg/mL","90,666"
same,"Proliferation (ATP assay), Mean","Table 96, T-cell line 222-2D8, GA conc. 5 μg/mL","99,491"
same,"Proliferation (ATP assay), Mean","Table 96, T-cell line 222-2F12, GA conc. 0.5 μg/mL","2,404"
same,"Proliferation (ATP assay), Mean","Table 96, T-cell line 222-2F12, GA conc. 1 μg/mL","11,359"
same,"Proliferation (ATP assay), Mean","Table 96, T-cell line 222-2F12, GA conc. 2 μg/mL","78,880"
same,"Proliferation (ATP assay), Mean","Table 96, T-cell line 222-2F12, GA conc. 2.5 μg/mL","95,825"
same,"Proliferation (ATP assay), Mean","Table 96, T-cell line 222-2F12, GA conc. 5 μg/mL","107,930"
